Reference: patent US8435548B2, “Peptide derivatives and cosmetic composition comprising the same” (Bio-FD&C Co., Ltd, priority 2009, dated 2013)
Primed or numbered codes have the meaning given here. Where no end group is shown, it is not given here. Galloyl′ = not defined here

Tests used:
mushroom tyrosinase = assay: Inhibition effect on tyrosinase activity; type: biochemical; conditions: test compound 100 μM; L-tyrosine substrate; pH 6.8; 37° C., 20 min; absorbance 490 nm
Description: Inhibition effects of the prepared compounds were measured by the known method (see: Pomerantz S. H., J. Biochem., 24:161-168, 1966).
The test compounds were prepared to a final concentration of 100 μM and put into a 96-well plate, and 220 μl of 100 mM sodium phosphate buffer (pH 6.8) and 40 μl of 1.5 mM L-tyrosine solution were added thereto. The resulting mixture was reacted with the addition of 20 μl of mushroom tyrosinase (1,500 units/ml, Sigma) at 37° C. for 20 min. 0.2 ml of the reacted solution was transferred to a 96-well plate, and its absorbance was measured at 490 nm with a microplate reader to obtain the inhibition effect on tyrosinase.
The tyrosinase inhibition effect was calculated according to the following formula 1 by using the absorbance of pure water as a control, and expressed as a percentage.

[1] = Free radical scavenging activity test (DPPH method, anti-oxidative activity); type: physicochemical; conditions: 30 min, absorbance 517 nm
Description: A representative antioxidant, vitamin C (Sigma) was used as a positive control, and the galloyl-tetrapeptide and digalloyl-tetrapeptide according to the present invention were mixed with 1,1-diphenyl-2-picrylhydrazyl (DPPH, Sigma) producing free radicals in ethanol to determine the reduced amounts of the produced free radicals. […] The resulting solution was vigorously vortexed for 10 sec, kept at a dark cold place for 30 min, and then its absorbance was measured at 517 nm by ELISA method. The anti-oxidative activity (free radical scavenging activity) was calculated according to the following formula 2 by using the absorbance of pure water as a control, and expressed as a percentage. [formula]

Galloyl-Tripeptide(Glutamyl-Cysteinyl-Glycine) [Example 3]
Inhibition (%) (mushroom tyrosinase): 34%

O=C(O)c1cc(O)c(O)c(O)c1 [Gallic acid]
Inhibition (%) (mushroom tyrosinase): 10%
Free radical scavenging activity (%) ([1]; 10 uM): 63.1%
Free radical scavenging activity (%) ([1]; 50 uM): 70.4%
Free radical scavenging activity (%) ([1]; 100 uM): 75.1%

Digalloyl-Tetrapeptide(Lysyl-Glutamyl-Cysteinyl-Glycine) [Example 2]
Inhibition (%) (mushroom tyrosinase): 52%
Free radical scavenging activity (%) ([1]; 10 uM): 82.1%
Free radical scavenging activity (%) ([1]; 50 uM): 82.0%
Free radical scavenging activity (%) ([1]; 100 uM): 83.5%

Galloyl-Tetrapeptide(Lysyl-Glutamyl-Cysteinyl-Glycine) [Example 1]
Inhibition (%) (mushroom tyrosinase): 40%
Free radical scavenging activity (%) ([1]; 10 uM): 65.8%
Free radical scavenging activity (%) ([1]; 50 uM): 78.2%
Free radical scavenging activity (%) ([1]; 100 uM): 78.1%

Galloyl-Tripeptide(Tyrosyl-Histidyl-Tyrosine) ({Galloyl′}-Tyr-His-Tyr) [Comparative Example 1, soy bean-derived peptide connected to gallic acid]
Inhibition (%) (mushroom tyrosinase): 15%

O=C1O[C@H]([C@@H](O)CO)C(O)=C1O [Vitamin C]
Free radical scavenging activity (%) ([1]; 10 uM): 55.2%
Free radical scavenging activity (%) ([1]; 50 uM): 68.3%
Free radical scavenging activity (%) ([1]; 100 uM): 72.5%

Digalloyl-Tetrapeptide(Lysyl-Tyrosyl-Histidyl-Tyrosine) (KYHY; also: digalloyl: two galloyl groups, sites not given here) [Comparative Example 2, soy bean-derived peptide connected to gallic acid]
Inhibition (%) (mushroom tyrosinase): 21%
